# Measured values from publication PMC10477886, “Adamantaniline Derivatives Target ATP5B to Inhibit Translation of Hypoxia Inducible Factor‐1α” (Advanced Science, 2023).
# How the values were obtained:
# Format in all cases: cell-based, human
# [1] = test system: HIF‐1α transcriptional activity; assay: dual‐luciferase assay (HRE‐Firefly Luciferase / renilla) of HIF‐1α transcriptional activity in HEK293T cells
# Method in brief: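 Stable HEK293T line carrying HRE-firefly luciferase, renilla and HIF-1α P402A/P564A mutant, giving HIF-1α expression under normoxia. Compounds incubated 24 h at 37 °C; firefly/renilla luciferase ratio read as HIF-1α transcriptional activity.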
# [2] = test system: HIF‐1α protein level; assay: western blot of HIF‐1α protein level in cells
# Procedure: Cells were lysed with RIPA lysis (Epizyme, PC101) containing 1% cocktail protease inhibitors (MCE), and protein concentrations were determined by BCA kits (Beyotime, P0012S). Samples were denatured using DS‐PAGE Protein Staining and Loading Buffer (5×) (Beyotime, P0015L) followed by boiling for 10 min at 98 °C then the proteins were fractionated by 10% or 12.5% SDS‐PAGE and transferred to Cellulose Nitrate Membrane Filters (WHATMAN). After blocking in 5% non‐fat milk for 2 h at room temperature, the membrane was incubated overnight with specific antibodies at 4 °C, followed by horseradish peroxidase (HRP)‐linked anti‐mouse or anti‐rabbit secondary antibody (Cell Signaling Technology). Finally, An Immobilon Western Chemiluminescent HRP Substrate Kit (Merck Millipore) was used for protein bands detection. In addition, blots were probed with anti‐β‐actin (Merck, Darmstadt, Germany) antibody as the internal control.
# [3] = test system: HIF‐1α and HIF‐1β mRNA expression; assay: RT‐qPCR of HIF‐1α and HIF‐1β mRNA
# Text: The whole protein synthesis process can be divided into four major steps: transcription, translation, posttranslational modifications and folding to a mature protein, and protein secretion.^[ [52] ^] We then investigated the potential effects of HI‐101 on HIF‐1α transcription and translation. […] On the basis of the existing experimental results, we draw a conclusion that HI‐101 inhibited the synthesis of nascent HIF‐1α protein without affecting its transcription.
# Total RNA was isolated using Trizol reagent (Invitrogen). Complementary DNA was synthesized using a Reverse Transcriptase reagent (Promega). Fluorescence real‐time PCR was performed with the double‐stranded DNA dye SYBR Master Mix (Roche Diagnostics Corporation, Indianapolis, IN, USA) and the Applied Biosystems Step One Plus detection system (ABI 7900). The upstream and downstream gene‐specific primers were as follows. • HIF‐1α sense: 5′‐[…]‐3′, • HIF‐1α antisense: 5′‐[…]‐3′; • HIF‐1β sense: 5′‐[…]‐3′, • HIF‐1β antisense:5′‐[…]‐3′; • VEGF sense: 5′‐[…]‐3′, • VEGF antisense: 5′‐[…]‐3′; • PDK1 sense:5′‐[…]‐3′, • PDK1 antisense:5′‐GGAGGTCTCAACACGAGGT‐3′; • β‐actin sense: 5′‐[…]‐3′, • β‐actin antisense: 5′‐[…]‐3′; • ATP5D sense:5′‐ […]‐3′, • ATP5D antisense: 5′‐[…]‐3′; • ATP5E sense: 5′‐ […]‐3′, • ATP5E antisense:5′‐[…]‐3′; • ATP5F1 sense: 5′‐ […]‐3′, • ATP5F1 antisense:5′‐[…]‐3′.
# [4] = test system: HIF‐1α translation; assay: polysome profile analysis; details: HEK293T, 12 h with MG‐132, hypoxia
# Procedure: Given that HI‐101 affected neither the transcription of HIF‐1α nor its degradation, we next tested whether HI‐101 regulated HIF‐1α translation. Polysome profile analysis is a commonly used method for studying translation process by separating polysomes and ribosomal subunits using a sucrose density gradient (SDG).^[ [53] ^] After treating with HI‐101 or DMSO for 12 h co‐incubated with MG‐132 under hypoxia condition, HEK293T cells were collected and polysome‐bound and polysome‐free mRNAs were isolated by using 10–50% sucrose gradient fractionation.
# Polysome RNA preparations and analysis were carried out as previously described.^[ [60] ^] Briefly, cells were seeded in 10 cm dishes, and washed with cold PBS containing 100 µg mL^−1 cycloheximide, and then lysed in a hypotonic lysis buffer [5 mM tris‐HCl (pH 7.5), 2.5 mM MgCl2, 1.5 mM KCl, 100 µg mL^−1 cycloheximide, 2 mM DTT, 0.5% Triton X‐100, and 0.5% sodium deoxycholate]. A lysate sample was used to isolate the cytoplasmic RNA using TRIzol (Invitrogen). […] Gradients were fractionated, and the optical density at 260 nm was continuously detected by a UV detector and fraction collector (Teledyne ISCO). […] Fractions with mRNA associated with polysomes were pooled and HIF‐1α mRNA abundance was detected by RT‐PCR amplification in each fraction of the polysome gradient. […]
smiles,measurement,setting,value
"O=C(Nc1ccc(C23CC4CC(CC(C4)C2)C3)cc1)c1cccc(Cl)c1 [1‐3a, N‐(4‐((3r,5r,7r)‐Adamantan‐1‐yl)Phenyl)−3‐Chlorobenzamide]",inhibition at 10 µM,"[1]; Homo sapiens, HEK-293T, 10 µM, incubation 24 h, HEK293T, mean ± s.d. (n = 3), read-out: Inhibition rate [%] @ 10 µM",81.4 ± 0.9%
same,IC50,"[1]; Homo sapiens, HEK-293T, HEK293T dual‐luciferase, mean ± s.d. (n = 3)",2000 ± 300 nM
same,"HIF‐1α transcriptional activity (luciferase), in words",[1]; hit confirmation,significantly inhibited HIF‐1α transcriptional activity
same,rate of HIF‐1α protein degradation,"[2]; 10 µM with 100 µg mL^−1 CHX, hypoxia",did not have a significant effect on the rate of HIF‐1α protein degradation
same,HIF‐1α protein expression,"[2]; ATP5A or ATP5B knocked down by shRNA, up to 30 µM",failed to decrease HIF‐1α protein expression
same,HIF‐1α protein level,"[2]; hit confirmation, Figure S5",significantly reduced HIF‐1α protein level
same,HIF‐1α protein level,[2]; hypoxia,specifically reduced the protein level of HIF‐1α in a dose‐dependent manner
same,HIF‐1α and HIF‐1β mRNA expression,[3],did not affect HIF‐1α and HIF‐1β mRNA expression
same,HIF‐1α translation,[4],efficiently inhibited HIF‐1α translation
